Assay results reported in patent US20120101110A1, “Diaza-spiro[5.5]undecanes” (priority 2010, published 2012).

Tests used:
human orexin 2 receptors [1] = target: T1, human orexin 2 receptors (Homo sapiens, UniProt O43614); experiment: Radioligand binding assay ([3H]-SB649868 competition), hOx2R; details: competition with about 1 nM [3H]-SB649868; CHO or HEK cell membranes expressing human orexin 2 receptor; read-out: binding hOx2R Kd
T1 sequence (O43614 1-444): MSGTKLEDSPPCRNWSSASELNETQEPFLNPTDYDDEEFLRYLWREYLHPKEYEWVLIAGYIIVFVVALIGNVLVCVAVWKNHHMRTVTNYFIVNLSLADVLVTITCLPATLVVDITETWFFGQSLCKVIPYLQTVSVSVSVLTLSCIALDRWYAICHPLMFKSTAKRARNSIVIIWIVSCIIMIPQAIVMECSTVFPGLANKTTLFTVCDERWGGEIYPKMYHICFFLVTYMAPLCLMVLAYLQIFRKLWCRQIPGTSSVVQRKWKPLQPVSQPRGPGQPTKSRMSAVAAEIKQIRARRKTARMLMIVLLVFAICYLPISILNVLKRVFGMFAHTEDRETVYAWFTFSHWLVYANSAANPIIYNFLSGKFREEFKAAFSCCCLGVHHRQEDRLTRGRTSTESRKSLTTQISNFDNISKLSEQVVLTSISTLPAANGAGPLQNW
Description: (§1) The cell pellet was either stored at −80° C. or used directly. Before the experiments, cell membranes were re-suspended in binding assay buffer (10 mM HEPES, 0.5% (w/v) bovine serum albumin, pH 7.5) by homogenisation with a Polytron homogeniser at 50 Hz for 20 s. Cell membranes were also used as made available by commercial providers.
(§2) Bound radioactivity was measured, and data were analysed with the program XLFIT or Graphpad Prism. Protein concentration was determined according to the Bradford/BioRad Protein Assay Kit.
(§3) In competition experiments, cell homogenates (150 μl) were incubated in assay buffer (10 mM HEPES, pH 7.5, 0.5% (w/v) bovine serum albumin, 5 mM MgCl2, 1 mMCaCl2, and tween 0.05%) for 1 h at room temperature with about 1 nM of the radioligand [^3H]-SB649868, 66 Ci/mmole, 50 μl), and with various concentrations of compounds of the invention (50 μl) in triplicates; non-specific binding was determined in the presence of almorexant (10 μM).

human orexin 2 receptors [2] = target: T1, human orexin 2 receptors; experiment: Calcium accumulation in cells (FLIPR), hOx2R; type: cell-based; details: cells expressing human orexin 2 receptor; inhibition of orexin A-induced calcium accumulation; Cheng and Prusoff correction
Description: (§4) Cells expressing human orexin 1 or human orexin 2 receptors, were seeded at 8,000 cells/well in 384 well black-walled clear bottom, poly-D-lysine coated plates. After 24 h, the medium was removed and cells were washed once with phosphate buffered saline and serum-deprived overnight in assay buffer (130 mM NaCl, 5.4 mM KCl, 1.8 mM CaCl2, 0.8 mM MgSO4, 0.9 mM NaH2PO4, 25 mM glucose, 20 mM HEPES, pH 7.4) containing bovine serum albumin (1% w/v).
On the day of the experiment, the cells seeded in black plates were treated with assay buffer containing the Ca^2+sensitive fluorescent dye Fluo-4-AM (2 μM), and probenecid (0.1 mM). After 1 h plates were washed twice with, and resuspended in, assay buffer containing probenecid (0.1 mM) using a multi plate washer. […] Fluorescence measurements were then continued every 1 S for 120 S followed by every 4 S for 240 S.
The measurements were typically made in two sequences:
(§5) Compounds of formula I were tested usually in a concentration range from 10^−9 M to 10^−5 M. In the second round, performed one hour later (to allow for equilibration), Orexin A was tested either in the absence (calibration curves, Orexin A agonist controls) or in the presence of compounds of formula I to determine antagonism.

human orexin 1 receptors [3] = target: T2, human orexin 1 receptors (Homo sapiens, UniProt O43613); experiment: Radioligand binding assay ([3H]-SB649868 competition), hOx1R; details: competition with about 1 nM [3H]-SB649868; CHO or HEK cell membranes expressing human orexin 1 receptor
T2 sequence (O43613 1-425): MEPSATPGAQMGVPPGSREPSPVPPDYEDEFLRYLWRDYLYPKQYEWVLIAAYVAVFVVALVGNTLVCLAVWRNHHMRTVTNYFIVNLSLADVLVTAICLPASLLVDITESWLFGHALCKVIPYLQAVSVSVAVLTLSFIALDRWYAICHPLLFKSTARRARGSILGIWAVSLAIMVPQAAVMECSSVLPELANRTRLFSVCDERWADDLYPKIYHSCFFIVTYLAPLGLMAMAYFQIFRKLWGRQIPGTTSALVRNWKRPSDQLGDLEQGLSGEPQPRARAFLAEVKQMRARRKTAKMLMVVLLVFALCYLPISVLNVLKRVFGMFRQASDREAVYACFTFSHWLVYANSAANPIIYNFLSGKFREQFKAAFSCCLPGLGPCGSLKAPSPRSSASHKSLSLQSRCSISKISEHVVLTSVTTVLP
Description: as §1, §2
as §3, with “μM). Reactions were terminated by vacuum filtration, 3 washes of ice cold wash buffer (Tris-HCl pH 7.4/10 mM, with NaCl 154 mM). Competition data is expressed in Table 2 as Kd [μM].” for “μM).”

human orexin 1 receptors [4] = target: T2, human orexin 1 receptors; experiment: Calcium accumulation in cells (FLIPR), hOx1R; details: for inhibition at 10 µM: read-out: FLIPR hOx1R % inhibition value
Description: as §4
On the day of the experiment, the cells seeded in black plates were treated with assay buffer containing the Ca^2+sensitive fluorescent dye Fluo-4-AM (2 μM), and probenecid (0.1 mM). After 1 h plates were washed twice with, and resuspended in, assay buffer containing probenecid (0.1 mM) using a multi plate washer. The plates were placed into a FLIPR II (Fluorometric Imaging Plate Reader, Molecular Devices, Sunnyvale, Calif., USA) and baseline fluorescence (fluorescence light units, FLU) was measured (5 measurements, 2 S each; laser excitation 488 nm at 0.6-1 W, CCD camera exposure 0.4 s) before addition of buffer alone (basal) or containing test compounds (either compound of formula I alone, agonist alone or agonist in the presence of various concentrations of compounds of formula I). Fluorescence measurements were then continued every 1 S for 120 S followed by every 4 S for 240 S.
as §5
Inhibition data is expressed in Table 2 as Ki [μM], converted by the Cheng and Prusoff correction (Ki=IC50/1+(L/EC50)), where IC50 is the 50% inhibition value determined in concentration response inhibition curves, EC50 is the half maximal activation concentration determined for orexin A in concentration response curves and L is the concentration of orexin A used in inhibition experiments performed in with a submaximal concentration of orexin A in the presence of up to 8 increasing concentrations of compound of formula I. Inhibition data is also expressed in Table 2 as % inhibition value measured at a concentration of 10 μM of selected compounds of formula I.

| Compound | Kd (human orexin 2 receptors [1]) | Ki (human orexin 2 receptors [2]) | Kd (human orexin 1 receptors [3]) | Ki (human orexin 1 receptors [4]) | inhibition at 10 µM (human orexin 1 receptors [4]) |
| --- | --- | --- | --- | --- | --- |
| N#Cc1ccnc(N2CCC3(CCCN(Cc4cccc(-c5ncccn5)c4)C3=O)CC2)c1 [Example 35, 2-(1-oxo-2-(3-(pyrimidin-2-yl)benzyl)-2,9-diazaspiro[5.5]undecan-9-yl)isonicotinonitrile] | 98 nM | 45 nM | 394 nM | 868 nM |  |
| Cc1cc(C)nc(N2CCC3(CCCN(Cc4cccc(-c5ncc(C)o5)c4)C3=O)CC2)n1 [Example 36, 9-(4,6-dimethylpyrimidin-2-yl)-2-(3-(5-methyloxazol-2-yl)benzyl)-2,9-diazaspiro[5.5]undecan-1-one] | 89 nM | 38 nM | 431 nM | 714 nM |  |
| Cc1cc(C#N)nc(N2CCC3(CCCN(Cc4cccc(-c5ncc(C)o5)c4)C3=O)CC2)n1 [Example 37, 6-methyl-2-(2-(3-(5-methyloxazol-2-yl)benzyl)-1-oxo-2,9-diazaspiro[5.5]undecan-9-yl)pyrimidine-4-carbonitrile] | 1160 nM | 79 nM | > 10000 nM | 1890 nM |  |
| Cc1ccnc(N2CCC3(CCCN(Cc4cccc(-c5ncc(C)o5)c4)C3=O)CC2)n1 [Example 38, 2-(3-(5-methyloxazol-2-yl)benzyl)-9-(4-methylpyrimidin-2-yl)-2,9-diazaspiro[5.5]undecan-1-one] | 177 nM | 43 nM | 1190 nM | 924 nM |  |
| Cc1cnc(-c2cccc(CN3CCCC4(CCN(c5cccc(C#N)n5)CC4)C3=O)c2)o1 [Example 39, 6-(2-(3-(5-methyloxazol-2-yl)benzyl)-1-oxo-2,9-diazaspiro[5.5]undecan-9-yl)picolinonitrile] | 367 nM | 29 nM | 1440 nM | 533 nM |  |
| Cc1cnc(-c2cccc(CN3CCCC4(CCN(c5cc(C#N)ccn5)CC4)C3=O)c2)o1 [Example 40, 2-(2-(3-(5-methyloxazol-2-yl)benzyl)-1-oxo-2,9-diazaspiro[5.5]undecan-9-yl)isonicotinonitrile] | 37 nM | 19 nM | 332 nM | 241 nM |  |
| Cc1cncc(N2CCC3(CCCC(=O)N3Cc3cccc4[nH]ccc34)CC2)n1 [Example 41, 1-((1H-indol-4-yl)methyl)-9-(6-methylpyrazin-2-yl)-1,9-diazaspiro[5.5]undecan-2-one] | 85 nM | 15 nM | 2820 nM | 1640 nM |  |
| Cc1ccnc(N2CCC3(CCCC(=O)N3Cc3cccc4[nH]ccc34)CC2)n1 [Example 42, 1-((1H-indol-4-yl)methyl)-9-(4-methylpyrimidin-2-yl)-1,9-diazaspiro[5.5]undecan-2-one] | 140 nM | 26 nM | 5230 nM |  | 34% |
| COc1cncc(N2CCC3(CCCC(=O)N3Cc3cccc4[nH]ccc34)CC2)n1 [Example 43, 1-((1H-indol-4-yl)methyl)-9-(6-methoxypyrazin-2-yl)-1,9-diazaspiro[5.5]undecan-2-one] | 612 nM | 17 nM | 1860 nM | 729 nM |  |
| O=C1CCCC2(CCN(c3cncc(Cl)n3)CC2)N1Cc1cccc2[nH]ccc12 [Example 44, 1-((1H-indol-4-yl)methyl)-9-(6-chloropyrazin-2-yl)-1,9-diazaspiro[5.5]undecan-2-one] | 238 nM | 12 nM | 5740 nM | 1570 nM |  |
| Cc1cc(C)nc(N2CCC3(CCCN(Cc4n[nH]c5ccccc45)C3=O)CC2)n1 [Example 45, 2-((1H-indazol-3-yl)methyl)-9-(4,6-dimethylpyrimidin-2-yl)-2,9-diazaspiro[5.5]undecan-1-one] | 64 nM | 10 nM | 1060 nM | 521 nM |  |
| O=C1N(Cc2c[nH]c3ccccc23)CCCC12CCN(c1nccc(Cl)n1)CC2 [Example 51, 2-((1H-indol-3-yl)methyl)-9-(4-chloropyrimidin-2-yl)-2,9-diazaspiro[5.5]undecan-1-one] | 700 nM | 84 nM | 4820 nM |  | 44% |
| COc1cccc(N2CCC3(CCCN(Cc4c[nH]c5ccccc45)C3=O)CC2)n1 [Example 65, 2-((1H-indol-3-yl)methyl)-9-(6-methoxypyridin-2-yl)-2,9-diazaspiro[5.5]undecan-1-one] | 588 nM | 66 nM | > 10000 nM | 699 nM |  |
| Cc1ccnc(N2CCC3(CCCN(Cc4c[nH]c5ccccc45)C3=O)CC2)c1 [Example 67, 2-((1H-indol-3-yl)methyl)-9-(4-methylpyridin-2-yl)-2,9-diazaspiro[5.5]undecan-1-one] | 315 nM | 134 nM | 3590 nM |  | < 10% |
| Cc1cc(C)nc(N2CCC3(CCCN(Cc4cccc(-c5ncccn5)c4)C3=O)CC2)c1 [Example 74, 9-(4,6-dimethylpyridin-2-yl)-2-(3-(pyrimidin-2-yl)benzyl)-2,9-diazaspiro[5.5]undecan-1-one] | 338 nM | 160 nM | > 10000 nM | 2150 nM |  |
| Cc1cc(C#N)nc(N2CCC3(CCCN(Cc4c[nH]c5ccccc45)C3=O)CC2)n1 [Example 75, 2-(2-((1H-indol-3-yl)methyl)-1-oxo-2,9-diazaspiro[5.5]undecan-9-yl)-6-methylpyrimidine-4-carbonitrile] | 466 nM | 7.2 nM | > 10000 nM | 1480 nM |  |
| Cc1cc(C#N)cc(N2CCC3(CCCN(Cc4c[nH]c5ccccc45)C3=O)CC2)n1 [Example 78, 2-(2-((1H-indol-3-yl)methyl)-1-oxo-2,9-diazaspiro[5.5]undecan-9-yl)-6-methylisonicotinonitrile] | 216 nM | 3 nM | 3420 nM | 481 nM |  |
| N#Cc1ccnc(N2CCC3(CCCN(Cc4c[nH]c5ccccc45)C3=O)CC2)n1 [Example 80, 2-(2-((1H-indol-3-yl)methyl)-1-oxo-2,9-diazaspiro[5.5]undecan-9-yl)pyrimidine-4-carbonitrile] | 1100 nM | 50 nM | 7760 nM |  | 41% |
| Cc1cnc(N2CCC3(CCCN(Cc4c[nH]c5ccccc45)C3=O)CC2)nc1C [Example 81, 2-((1H-indol-3-yl)methyl)-9-(4,5-dimethylpyrimidin-2-yl)-2,9-diazaspiro[5.5]undecan-1-one] | 29 nM | 45 nM | 798 nM | 2030 nM |  |
| N#Cc1cccc(N2CCC3(CCCN(Cc4c[nH]c5ccccc45)C3=O)CC2)n1 [Example 83, 6-(2-((1H-indol-3-yl)methyl)-1-oxo-2,9-diazaspiro[5.5]undecan-9-yl)picolinonitrile] | 2110 nM | 13 nM | > 10000 nM | 1520 nM |  |
| COc1cc(OC)nc(N2CCC3(CCCN(Cc4c[nH]c5ccccc45)C3=O)CC2)n1 [Example 88, 2-((1H-indol-3-yl)methyl)-9-(4,6-dimethoxypyrimidin-2-yl)-2,9-diazaspiro[5.5]undecan-1-one] | 611 nM | 46 nM | 5060 nM | 406 nM |  |
